Test results published in patent US5298626A, “Select cyclopent[b]indoles” (priority 1992, dated 1994).
Where “and” joins values, the source holds several entries; their conditions need not be identical. Equal values may be shown once. Read-outs that look alike come from different tables or passages of the source.

What was measured:
[1] = system: Scopolamine Induced Memory Deficit; format: in vivo, mice
Procedure: In this assay mice are tested for their ability to remember an unpleasant stimulus for a period of 24 hours. A mouse is placed in a chamber that contains a dark compartment; a strong incandescent light drives it to the dark compartment, where an electric shock is administered through metal plates on the floor. The animal is removed from the testing apparatus and tested again, 24 hours later, for the ability to remember the electric shock.
If scopolamine, an anticholinergic that is known to cause memory impairment, is administered before an animal's initial exposure to the test chamber, the animal re-enters the dark compartment shortly after being placed in the test chamber 24 hours later. This effect of scopolamine is blocked by an active test compound, resulting in a greater interval before re-entry into the dark compartment.
The results for an active compound are expressed as the percent of a group of animals in which the effect of scopolamine is blocked, as manifested by an increased interval between being placed in the test chamber and re-entering the dark compartment.

α2-receptor = test: 3H-Clonidine Binding: α2-Receptor; parameters: species or system rat (male Wistar); conditions: 3 nM 3H-clonidine, rat cortical tissue, pH 7.7
Procedure: See references 1, 2 and 3 cited below. The interaction of a compound with central α2 -receptors is assessed in the ^3 H-clonidine binding assay.
2. Tris buffer containing physiological ions
3. [4-^3 H]-Clonidine hydrochloride (20-30 Ci/mmol) is obtained from New England Nuclear.
4. Clonidine-HCl is obtained from Boehringer Ingelheim. A stock solution of 0.1 mM clonidine is made up to determine nonspecific binding. This yields a final concentration of 1 μM in the assay (20 μl to 2 ml).
Male Wistar rats are sacrificed by decapitation and the cortical tissue rapidly dissected. The tissue is homogenized in 50 volumes of 0.05M Tris buffer, pH 7.7 (buffer 1b) with the Brinkman Polytron, then centrifuged at 40,000 g for 15 minutes. The supernatant is discarded and the pellet re-homogenized in the original volume of 0.05M Tris buffer, pH 7.7 and re-centrifuged as before. The supernate is discarded and the final pellet re-homogenized in 50 volumes of buffer 2b. This tissue suspension is then stored on ice. The final tissue concentration is […]. Specific binding is 1% of the total added ligand and 80% of total bound ligand.
100 μl--0.5M Tris-physiological salts, pH 7.7 (buffer 2a)
20 μl--Vehicle (for total binding) or 0. 1 mM clonidine (for nonspecific binding) or appropriate drug concentration
50 μl--^3 H-clonidine stock
1000 μl tissue suspension
Tissue homogenates are incubated for 20 minutes at […] with 3 nM 3 H-clonidine and varying drug concentrations, and thereafter immediately filtered under reduced pressure on Whatman GF/B filters. The filters are washed with three five ml volumes of ice-cold 0.05M Tris buffer, pH 7.7, and thereafter transferred to scintillation vials. Ten ml of Liquiscint counting solution is added to each sample which is then counted by liquid scintillation spectroscopy. Specific clonidine binding is defined as the difference between total bound and […]. The percent inhibition at each drug concentration is the mean of triplicate determinations.

[2] = system: monoamine oxidase type A and type B; conditions: literature, reference (2); cited from earlier work
MAO-A = biological target: T1, MAO-A (Rattus norvegicus, UniProt P21396); test: biochemical; parameters: species or system rat (male Wistar)
T1 construct: served as the tissue source for mitochondrial MAO; from tissue; host or cells: whole brain minus cerebellum of male Wistar rats, P2 pellet (18,000 g)
T1 sequence (P21396 1-526): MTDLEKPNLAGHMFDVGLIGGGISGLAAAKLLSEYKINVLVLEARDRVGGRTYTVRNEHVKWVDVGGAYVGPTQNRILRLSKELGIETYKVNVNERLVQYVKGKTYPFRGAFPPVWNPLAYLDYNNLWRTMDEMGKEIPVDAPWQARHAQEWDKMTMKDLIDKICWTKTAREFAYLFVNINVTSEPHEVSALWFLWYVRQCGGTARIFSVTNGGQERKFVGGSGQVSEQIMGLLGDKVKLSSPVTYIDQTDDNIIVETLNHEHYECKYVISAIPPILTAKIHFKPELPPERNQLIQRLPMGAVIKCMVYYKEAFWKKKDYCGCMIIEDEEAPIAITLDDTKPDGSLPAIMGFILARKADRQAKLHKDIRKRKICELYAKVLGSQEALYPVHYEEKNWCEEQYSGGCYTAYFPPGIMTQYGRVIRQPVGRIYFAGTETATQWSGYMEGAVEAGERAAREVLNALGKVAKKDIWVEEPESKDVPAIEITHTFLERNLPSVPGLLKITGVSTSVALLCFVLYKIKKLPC
Procedure: Inhibition of Type A and Type B Monoamine Oxidase
Activity in Rat Brain Synaptosomes
(§1) To determine the selective inhibition of the two forms of monoamine oxidase (MAO).
Although various methods for measuring MAO activity are available, the described method involves the extraction of the radiolabeled deaminated metabolites of [^3 H]-5HT or [^14 C]-β-phenethylamine.
a. Serotonin creatine SO4 (5HT) is obtained from Sigma Chemical Company. A 5 mM stock solution is made up in 0.01N HCl. This is used to dilute the specific activity of the [^3 H]-5HT. b. [^3 H]-5-Hydroxytryptamine binoxalate (20-30 Ci/mmol) is obtained from New England Nuclear. c. Add 12 μl of [^3 H]-5HT to 2 ml of the 5 mM 5HT solution. (Final amine concentration in the assay is 200 μM: see below.)
5. Equal amounts of MAO-A (5HT) and MAO-B (PEA) substrates are combined for simultaneously testing both MAO types, i.e. mixed stock solution of 2.5 mM 5HT and 2.5 mM PEA, 40 μl of this mixed solution gives a 200 μM final concentration of each amine in the assay. When testing only one MAO type, the individual 5 mM stock solutions must be diluted 1: 1 with distilled water prior to adding 40 μl to the incubation mixture; i.e., same 200 μM final amine concentration.
(§2) Male Wistar rats weighting 15-250 grams were sacrificed an removed. Whole brain minus cerebellum was homogenized in 30 volumes of ice-cold, phosphate-buffered 0.25M sucrose, using a Potter-Elvejhem homogenizer. The homogenate as centrifuged at 1000 g for 10 minutes and the supernatant (S1) decanted and recentifuged at 18,000 g for 20 minutes. […]
(§3) Tubes are preincubated for 15 minutes at 37° C. and the assay is started by adding 40 μl of combined substrate ([^3 H]-5HT and [^14 C]-PEA) at 15 second intervals. […] Tissue blank values are determined by adding the acid before the radioactive substrate. […] 10 ml of Liquiscint is added and the samples are counted using window settings for in ^14 C in one channel and ^3 H in the second channel. IC50 values are determined by log-probit analysis.

MAO-B = biological target: T2, MAO-B (Rattus norvegicus, UniProt P19643); test: biochemical; parameters: species or system rat (male Wistar)
T2 construct: served as the tissue source for mitochondrial MAO; from tissue; host or cells: whole brain minus cerebellum of male Wistar rats, P2 pellet (18,000 g)
T2 sequence (P19643 1-520): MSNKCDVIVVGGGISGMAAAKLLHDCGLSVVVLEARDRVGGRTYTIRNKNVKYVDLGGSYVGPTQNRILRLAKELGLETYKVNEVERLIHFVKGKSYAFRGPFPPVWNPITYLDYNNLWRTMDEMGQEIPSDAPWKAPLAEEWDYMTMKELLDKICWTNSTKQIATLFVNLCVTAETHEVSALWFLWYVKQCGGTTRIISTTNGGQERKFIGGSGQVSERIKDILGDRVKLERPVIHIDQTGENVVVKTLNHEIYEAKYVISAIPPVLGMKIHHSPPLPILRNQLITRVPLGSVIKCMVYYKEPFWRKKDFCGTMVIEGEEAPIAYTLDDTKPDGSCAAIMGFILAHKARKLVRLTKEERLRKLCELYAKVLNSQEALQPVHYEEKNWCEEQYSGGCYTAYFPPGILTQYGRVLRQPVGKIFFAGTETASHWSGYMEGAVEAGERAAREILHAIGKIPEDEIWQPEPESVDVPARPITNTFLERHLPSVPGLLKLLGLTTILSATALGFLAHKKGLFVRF
Procedure: Activity in Rat Brain Synaptosomes
as §1
Although various methods for measuring MAO activity are available, the described method involves the extraction of the radiolabeled deaminated metabolites of [^3 H]-5HT or [^14 C]-β-phenethylamine. This procedure allows MAO-A and MAO-B activities to be measured either simultaneously or individually (3).
A 5 mM stock solution is made up in 0.01N HCl. This is used to dilute the specific activity of the [^14 C]-PEA. b. β-[ethyl-1-^14 C]-phenethylaminehydrochloride(40-50 mCi/mmol) is obtained from New England Nuclear. c. Add 12 μl of [^14 C]-PEA to 2 ml of the 5 mM PEA solution. (Final amine concentration in the assay is 200 μM: see below.)
Equal amounts of MAO-A (5HT) and MAO-B (PEA) substrates are combined for simultaneously testing both MAO types, i.e. mixed stock solution of 2.5 mM 5HT and 2.5 mM PEA, 40 μl of this mixed solution gives a 200 μM final concentration of each amine in the assay. When testing only one MAO type, the individual 5 mM stock solutions must be diluted 1: 1 with distilled water prior to adding 40 μl to the incubation mixture; i.e., same 200 μM final amine concentration.
as §2, §3

[3] = biological target: T3, Brain AChE (acetylcholinesterase) (Rattus norvegicus, UniProt P37136); test: biochemical; parameters: species or system rat (male Wistar); conditions: rat striatum, read-out: Inhibitory Concentration, IC50
T3 construct: corpora striata dissected free, weighed and homogenized in 19 volumes; from tissue; host or cells: corpora striata of male Wistar rats, whole homogenate
T3 sequence (P37136 32-614): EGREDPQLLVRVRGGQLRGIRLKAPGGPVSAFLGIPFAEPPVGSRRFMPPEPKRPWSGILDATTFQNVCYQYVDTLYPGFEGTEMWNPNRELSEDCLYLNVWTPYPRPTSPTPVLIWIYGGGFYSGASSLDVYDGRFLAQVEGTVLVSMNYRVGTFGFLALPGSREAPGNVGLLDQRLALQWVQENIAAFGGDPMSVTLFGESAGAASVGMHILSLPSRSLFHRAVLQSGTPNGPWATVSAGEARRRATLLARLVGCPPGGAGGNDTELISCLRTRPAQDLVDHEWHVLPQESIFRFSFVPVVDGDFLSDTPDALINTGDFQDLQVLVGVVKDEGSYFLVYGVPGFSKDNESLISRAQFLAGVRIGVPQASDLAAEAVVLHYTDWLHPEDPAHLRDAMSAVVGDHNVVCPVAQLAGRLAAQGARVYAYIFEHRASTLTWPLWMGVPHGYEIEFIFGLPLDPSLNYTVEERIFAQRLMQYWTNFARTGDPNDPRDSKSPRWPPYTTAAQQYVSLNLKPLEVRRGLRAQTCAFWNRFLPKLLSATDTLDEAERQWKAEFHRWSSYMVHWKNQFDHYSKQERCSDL
Procedure: Cholinesterases are found throughout the body, both in the brain and in serum.
In Vitro Inhibition of Acetylcholinesterase Activity in Rat Striatum
The method described below was used in this invention for assaying cholinesterase activity. This is a modification of the method of Ellman et al., Biochem. Pharmacol. 7, 88 (1961).
1. 0.05M Phosphate buffer, pH 7.2
4. A 2 mM stock solution of the test drug is made up in a suitable solvent and q.s. to volume with 0.5 mM DTNB (reagent 3). […] If active, IC50 values are determined from the inhibitory activity of subsequent concentrations.
Male Wistar rats are decapitated, brains rapidly removed, corpora striata dissected free, weighed and homogenized in 19 volumes (approximately 7 mg protein/ml) of 0.05M phosphate buffer, pH 7.2 using a Potter-Elvehjem homogenizer.
Enzyme activity is measured with the Beckman DU-50 spectrophotometer. This method can be used for IC50 determinations and for measuring kinetic constants.
Blank values are determined for each run to control for non-enzymatic hydrolysis of substrate and these values are automatically subtracted by the kindata program available on kinetics soft-pac module. This program also calculates the rate of absorbance change for each cuvette.
Substrate concentration is 10 mM diluted 1:2 in assay yielding final concentration of 5 mM. […] IC50 values are calculated from log-probit analysis

CC[C@@H]1C(=O)OC[C@@H]1Cc1cncn1C [Pilocarpine, reference compound]
% of Animals with Scopolamine Induced Memory Deficit Reversal ([1]; 5.0 mg/kg of body weight, s.c., retest at 24 hours): 13%

Cn1c2c(c3ccccc31)CCC2N (stereo not shown) [4-methyl-1,2,3,4-tetrahydrocyclopent[b]indol-3-amine]
IC50 (α2-receptor): 1490 nM

C#CCN(C)Cc1ccccc1 [pargyline]
selectivity for type A / type B monoamine oxidase [2]: selective inhibitors of the type B enzyme

Nc1c2c(nc3ccccc13)CCCC2 [Tacrine, reference compound]
% of Animals with Scopolamine Induced Memory Deficit Reversal ([1]; mouse, in vivo): 13%

CNC(=O)Oc1ccc2c(c1)c1c(n2C)C(=NC2CC2c2ccccc2)CC1 (stereo not shown) [4-Methyl-3-[(2-phenylcyclopropyl)imino]-1,2,3,4-tetrahydrocyclopent[b]indol-7-yl methylcarbamate]
IC50 (MAO-A): 15200 nM | IC50 (MAO-B): 3700 nM

NC1CCC2c3ccccc3NC12 (stereo not shown) [1,2,3,3a,4,8b-Hexahydrocyclopent[b]indol-3-amine 2-naphthalene sulfonate hemihydrate]
IC50 (α2-receptor): 1270 nM

CNC(=O)Oc1ccc2c(c1)c1c(n2C)C(NC2CC2)CC1 (stereo not shown) [3-(N-Cyclopropyl)amino-4-methyl-1,2,3,4-tetrahydrocyclopent[b]indol-7-yl methylcarbamate]
IC50 [3]: 3500 nM | % of Animals with Scopolamine Induced Memory Deficit Reversal ([1]; 0.63 mg/kg of body weight, s.c., retest at 24 hours): 27% | % of Animals with Scopolamine Induced Memory Deficit Reversal ([1]; 2.5 mg/kg of body weight, s.c., retest at 24 hours): 33% | IC50 (MAO-A): 320 nM | IC50 (MAO-B): 420 nM

CN(C)CCC=C1c2ccccc2CCc2ccccc21 [Amitriptyline, reference compound]
IC50 (α2-receptor): 3900 nM

Cn1c2c(c3cc(O)ccc31)CCC2=NCc1ccccc1 [4-methyl-3-phenylmethylimino-1,2,3,4-tetrahydrocyclopent[b]indol-7-ol]
IC50 (α2-receptor): 850 nM

C#CCNC1CCc2c1[nH]c1ccccc21 (stereo not shown) [1,2,3,4-Tetrahydrocyclopent[b]indol-3-(2-propynyl)amine]
IC50 (MAO-A; substrate [3H]-5HT, 200 μM, read-out: Inhibitory Concentration - IC50, MAO-A): 290 nM | IC50 (MAO-B; substrate [14C]-PEA, 200 μM, read-out: Inhibitory Concentration - IC50, MAO-B): 320 nM

CNC(=O)Oc1ccc2c(c1)c1c(n2C)C(NCc2ccccc2)CC1 (stereo not shown) [4-methyl-3-phenylmethylamino-1,2,3,4-tetrahydrocyclopent[b]indol-7-yl methylcarbamate]
IC50 [3]: 1100 nM and 6200 nM

C#CCN(C)CCCOc1ccc(Cl)cc1Cl [Clorgyline]
selectivity for type A / type B monoamine oxidase [2]: selective inhibitor of the type A enzyme

CC(C)NNC(=O)c1ccncc1 [iproniazid]
selectivity for type A / type B monoamine oxidase [2]: nonselective inhibitors
